According to PubChem BioAssay AID256 (DTP/NCI, 2004):
“And” between values parts separate entries of the source, which are not always exact repeats. Equal entries are not always repeated. Toxic doses and inconclusive results are not listed.

Tested on: CD2F1 mice, L1210 leukemia ip, survival T/C
Experiment: NCI In Vivo Anticancer Drug Screen. Data for tumor model L1210 Leukemia (intraperitoneal) in CD2F1 (CDF1) mice
Conditions: higher = longer survival
In short: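 Transplantable tumor in mice; compound-treated vs vehicle-treated groups. Read-out = treated/control ratio of the measured endpoint.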

[1] = endpoint: mean survival time, dose: 100.0 mg/kg/injection, schedule: Q01DX001 (ip), vehicle: saline with Tween-80
[2] = endpoint: mean survival time, dose: 200.0 mg/kg/injection, schedule: Q01DX001 (ip), vehicle: saline with Tween-80
[3] = endpoint: mean survival time, dose: 100.0 mg/kg/injection, schedule: Q01DX009 (ip), vehicle: saline with Tween-80
[4] = endpoint: mean survival time, dose: 200.0 mg/kg/injection, schedule: Q01DX009 (ip), vehicle: saline with Tween-80
[5] = endpoint: mean survival time, dose: 400.0 mg/kg/injection, schedule: Q01DX009 (ip), vehicle: saline with Tween-80
[6] = endpoint: mean survival time, dose: 50.0 mg/kg/injection, schedule: Q01DX009 (ip), vehicle: saline with Tween-80
[7] = endpoint: mean survival time, dose: 400.0 mg/kg/injection, schedule: Q01DX001 (ip), vehicle: saline with Tween-80
[8] = endpoint: mean survival time, dose: 12.5 mg/kg/injection, schedule: Q01DX005 (ip), vehicle: other
[9] = endpoint: mean survival time, dose: 25.0 mg/kg/injection, schedule: Q01DX005 (ip), vehicle: other
[10] = endpoint: mean survival time, dose: 50.0 mg/kg/injection, schedule: Q01DX005 (ip), vehicle: other
[11] = endpoint: mean survival time, dose: 100.0 mg/kg/injection, schedule: Q01DX005 (ip), vehicle: other
[12] = endpoint: mean survival time, dose: 200.0 mg/kg/injection, schedule: Q01DX005 (ip), vehicle: other

In the case of `O=C[c-]1[c-][c-][c-][c-]1.[Fe+2].[c-]1[c-][c-][cH-][c-]1`, the T/C [1] is reported as 117 % of control and the T/C [2] is reported as 100 % of control.
`COc1ccc(CC(N)C(=O)NC2C(CO)OC(n3cnc4c(N)ncnc43)C2O)cc1` (centres undefined) was tested, and the T/C (endpoint: mean survival time, dose: 75.0 mg/kg/injection, schedule: Q01DX001 (ip), vehicle: saline) was 100 % of control, the T/C (endpoint: mean survival time, dose: 150.0 mg/kg/injection, schedule: Q01DX001 (ip), vehicle: saline) was 95 % of control and the T/C (endpoint: mean survival time, dose: 300.0 mg/kg/injection, schedule: Q01DX001 (ip), vehicle: saline) was 100 % of control.
`COc1ccccc1OC` was tested, and the T/C [3] was 95 % of control, the T/C [4] was 92 % of control and the T/C [5] was 92 % of control.
For `O=C(N/N=C\c1ccc(F)cc1)N/N=C/c1ccc(F)cc1`, the T/C (endpoint: mean survival time, dose: 12.5 mg/kg/injection, schedule: Q01DX009 (ip), vehicle: saline with Tween-80) was 93 % of control, the T/C (endpoint: mean survival time, dose: 25.0 mg/kg/injection, schedule: Q01DX009 (ip), vehicle: saline with Tween-80) was 91 % of control and the T/C [6] was 91 % of control. The T/C [4] was 90 % of control and the T/C [5] was 90 % of control.
For `CCOC(=O)C(C(=O)OCC)n1c(=O)c2c(ncn2C)n(C)c1=O`, the T/C (endpoint: mean survival time, dose: 200.0 mg/kg/injection, schedule: Q01DX005 (ip), vehicle: distilled water + Tween-80) was 102 % of control and the T/C (endpoint: mean survival time, dose: 400.0 mg/kg/injection, schedule: Q01DX005 (ip), vehicle: distilled water + Tween-80) was 101 % of control.
In the case of `O=C(Nc1cc([N+](=O)[O-])ccc1O)C(O)c1ccccc1` (centres undefined), the T/C (endpoint: mean survival time, dose: 12.5 mg/kg/injection, schedule: Q01DX009 (ip), vehicle: other) is reported as 95 % of control, the T/C (endpoint: mean survival time, dose: 25.0 mg/kg/injection, schedule: Q01DX009 (ip), vehicle: other) is reported as 89 % of control and the T/C (endpoint: mean survival time, dose: 50.0 mg/kg/injection, schedule: Q01DX009 (ip), vehicle: other) is reported as 86 % of control. For the same compound, the T/C (endpoint: mean survival time, dose: 100.0 mg/kg/injection, schedule: Q01DX009 (ip), vehicle: other) was 91 % of control and the T/C (endpoint: mean survival time, dose: 200.0 mg/kg/injection, schedule: Q01DX009 (ip), vehicle: other) was 91 % of control.
With `[N-]=[N+]=c1c(=O)c2ccccc2c1=O` the T/C [1] was 96 % of control, the T/C [2] was 94 % of control and the T/C [7] was 104 % of control.
For `Nc1ccc(-c2nc(=S)c3cn[nH]c3[nH]2)cc1`, the T/C [8] was 92 % of control, the T/C [9] was 94 % of control and the T/C [10] was 91 % of control. The T/C [11] was 91 % of control and the T/C [12] was 95 % of control.
`CCCC/C=C\C(=O)OCC` was tested, and the T/C [6] was 104 % of control, the T/C [3] was 101 % of control and the T/C [4] was 104 % of control.
With `CC1(C)N=C(N)N=C(N)N1c1cccc(CCCc2ccccc2)c1` the T/C (endpoint: mean survival time, dose: 6.25 mg/kg/injection, schedule: Q01DX001 (ip), vehicle: saline) was 96 % of control.
For `[Cl][Pt]([Cl])([Cl])[Cl]`, the T/C (endpoint: mean survival time, dose: 3.13 mg/kg/injection, schedule: Q01DX009 (ip), vehicle: saline) was 100 % of control, the T/C (endpoint: mean survival time, dose: 3.13 mg/kg/injection, schedule: Q01DX009 (ip), vehicle: suspension in saline) was 101 % of control and the T/C (endpoint: mean survival time, dose: 6.25 mg/kg/injection, schedule: Q01DX009 (ip), vehicle: saline) was 113 % of control. For the same compound, the T/C (endpoint: mean survival time, dose: 6.25 mg/kg/injection, schedule: Q01DX009 (ip), vehicle: suspension in saline) was 107 % of control, the T/C (endpoint: mean survival time, dose: 12.5 mg/kg/injection, schedule: Q01DX009 (ip), vehicle: saline) was 121 % of control and the T/C (endpoint: mean survival time, dose: 12.5 mg/kg/injection, schedule: Q01DX009 (ip), vehicle: suspension in saline) was 121 % of control. For the same compound, the T/C (endpoint: mean survival time, dose: 25.0 mg/kg/injection, schedule: Q01DX009 (ip), vehicle: saline) was 113 % of control and 102 % of control, the T/C (endpoint: mean survival time, dose: 25.0 mg/kg/injection, schedule: Q01DX009 (ip), vehicle: suspension in saline) was 124 % of control and the T/C (endpoint: mean survival time, dose: 25.0 mg/kg/injection, schedule: Q04DX003 (ip), vehicle: saline) was 108 % of control and 107 % of control. For the same compound, the T/C (endpoint: mean survival time, dose: 50.0 mg/kg/injection, schedule: Q04DX003 (ip), vehicle: saline) was 97 % of control and 105 % of control.
For `O=[N+]([O-])c1ccc2nocc2c1`, the T/C (endpoint: mean survival time, dose: 25.0 mg/kg/injection, schedule: Q04DX003 (ip), vehicle: Klucel (hydroxypropylcellulose) (HPC)) was 105 % of control, the T/C (endpoint: mean survival time, dose: 50.0 mg/kg/injection, schedule: Q04DX003 (ip), vehicle: Klucel (hydroxypropylcellulose) (HPC)) was 97 % of control and the T/C (endpoint: mean survival time, dose: 100.0 mg/kg/injection, schedule: Q04DX003 (ip), vehicle: Klucel (hydroxypropylcellulose) (HPC)) was 101 % of control.
In the case of `COc1cc(OC)c(C(=O)CCl)c(O)c1Cl`, the T/C [3] is reported as 93 % of control.
For `CC(C)(C)CC(C)(C)c1ccc(OCCOc2ccccc2NC(=O)CC(=O)c2cccc([N+](=O)[O-])c2)cc1`, the T/C (endpoint: mean survival time, dose: 100.0 mg/kg/injection, schedule: Q01DX009 (ip), vehicle: Klucel (hydroxypropylcellulose) (HPC)) was 98 % of control, the T/C (endpoint: mean survival time, dose: 100.0 mg/kg/injection, schedule: Q04DX003 (ip), vehicle: saline with Tween-80) was 97 % of control and the T/C (endpoint: mean survival time, dose: 200.0 mg/kg/injection, schedule: Q01DX009 (ip), vehicle: Klucel (hydroxypropylcellulose) (HPC)) was 93 % of control. The T/C (endpoint: mean survival time, dose: 200.0 mg/kg/injection, schedule: Q04DX003 (ip), vehicle: saline with Tween-80) was 101 % of control, the T/C (endpoint: mean survival time, dose: 400.0 mg/kg/injection, schedule: Q01DX009 (ip), vehicle: Klucel (hydroxypropylcellulose) (HPC)) was 90 % of control and the T/C (endpoint: mean survival time, dose: 400.0 mg/kg/injection, schedule: Q04DX003 (ip), vehicle: saline with Tween-80) was 92 % of control.
For `CCCCCC(=O)O[C@]1(C(C)=O)CC[C@H]2[C@@H]3CCC4=CC(=O)CC[C@]4(C)[C@H]3CC[C@@]21C`, the T/C (endpoint: median survival time, dose: 25.0 mg/kg/injection, schedule: Q01DX009 (ip), vehicle: saline with Tween-80) was 109 % of control, the T/C (endpoint: median survival time, dose: 50.0 mg/kg/injection, schedule: Q01DX009 (ip), vehicle: saline with Tween-80) was 96 % of control and the T/C (endpoint: median survival time, dose: 100.0 mg/kg/injection, schedule: Q01DX009 (ip), vehicle: saline with Tween-80) was 97 % of control. For the same compound, the T/C (endpoint: median survival time, dose: 200.0 mg/kg/injection, schedule: Q01DX009 (ip), vehicle: saline with Tween-80) was 95 % of control and the T/C (endpoint: median survival time, dose: 400.0 mg/kg/injection, schedule: Q01DX009 (ip), vehicle: saline with Tween-80) was 93 % of control.
With `CCOC(CNCc1cccc(OC)c1)OCC` the T/C (endpoint: mean survival time, dose: 100.0 mg/kg/injection, schedule: Q01DX001 (ip), vehicle: saline) was 100 % of control and the T/C (endpoint: mean survival time, dose: 200.0 mg/kg/injection, schedule: Q01DX001 (ip), vehicle: saline) was 100 % of control.
`O=C(O)c1cccc(C(=O)O)c1C(=O)O.[NH-]C1CCCCC1[NH-].[Pt+2]` was tested, and the T/C (endpoint: median survival time, dose: 3.12 mg/kg/injection, schedule: Q04DX003 (ip), vehicle: saline) was 102 % of control and 109 % of control, the T/C (endpoint: median survival time, dose: 6.25 mg/kg/injection, schedule: Q04DX003 (ip), vehicle: saline) was 114 % of control and 103 % of control and the T/C (endpoint: median survival time, dose: 12.5 mg/kg/injection, schedule: Q04DX003 (ip), vehicle: saline) was 115 % of control and 108 % of control. For the same compound, the T/C (endpoint: median survival time, dose: 25.0 mg/kg/injection, schedule: Q04DX003 (ip), vehicle: saline) was 117 % of control, the T/C (endpoint: median survival time, dose: 50.0 mg/kg/injection, schedule: Q04DX003 (ip), vehicle: saline) was 152 % of control and the T/C (endpoint: median survival time, dose: 100.0 mg/kg/injection, schedule: Q04DX003 (ip), vehicle: saline) was 178 % of control and 197 % of control. The T/C (endpoint: median survival time, dose: 200.0 mg/kg/injection, schedule: Q04DX003 (ip), vehicle: saline) was 282 % of control and 375 % of control.
For `Nc1nc(=S)c2[nH]c(-c3ccccc3)nc2[nH]1`, the T/C [8] was 96 % of control, the T/C [9] was 90 % of control and the T/C [10] was 93 % of control. For the same compound, the T/C [11] was 93 % of control and the T/C [12] was 90 % of control.
For `O=C(NC/C=C/Br)Nc1cnc2ccccc2c1`, the T/C (endpoint: mean survival time, dose: 25.0 mg/kg/injection, schedule: Q04DX003 (ip), vehicle: saline with Tween-80) was 102 % of control and the T/C (endpoint: mean survival time, dose: 50.0 mg/kg/injection, schedule: Q04DX003 (ip), vehicle: saline with Tween-80) was 93 % of control.
`O=C1C=CC(=O)N1CN1CCOCC1` was tested, and the T/C (endpoint: mean survival time, dose: 4.37 mg/kg/injection, schedule: Q01DX009 (ip), vehicle: saline) was 103 % of control, the T/C (endpoint: mean survival time, dose: 8.75 mg/kg/injection, schedule: Q01DX009 (ip), vehicle: saline) was 91 % of control and the T/C (endpoint: mean survival time, dose: 12.5 mg/kg/injection, schedule: Q04DX003 (ip), vehicle: saline) was 95 % of control.
For `N/C(=N\O)c1ncn(C2CCCC2)c1N`, the T/C (endpoint: mean survival time, dose: 75.0 mg/kg/injection, schedule: Q01DX001 (ip), vehicle: other) was 100 % of control and the T/C (endpoint: mean survival time, dose: 150.0 mg/kg/injection, schedule: Q01DX001 (ip), vehicle: other) was 102 % of control.
In the case of `N#CSCc1cc(Cl)c(CSC#N)cc1Cl`, the T/C (endpoint: mean survival time, dose: 75.0 mg/kg/injection, schedule: Q04DX003 (ip), vehicle: saline) is reported as 102 % of control, the T/C (endpoint: mean survival time, dose: 150.0 mg/kg/injection, schedule: Q04DX003 (ip), vehicle: saline) is reported as 98 % of control and the T/C (endpoint: mean survival time, dose: 300.0 mg/kg/injection, schedule: Q04DX003 (ip), vehicle: saline) is reported as 102 % of control.
`O=Cc1ccc(O)c(Cl)c1` was tested, and the T/C [1] was 96 % of control, the T/C [2] was 104 % of control and the T/C [7] was 93 % of control.
In the case of `CC(=O)Oc1cc(N=[N+]=[N-])c(OC(C)=O)cc1C`, the T/C [1] is reported as 97 % of control and the T/C [2] is reported as 93 % of control.
With `C/C(=C/C(C)(C)C)C1CCCCC1C` (centres undefined) the T/C [6] was 100 % of control, the T/C [3] was 100 % of control and the T/C [4] was 116 % of control.
